# Reference: PubChem BioAssay (NCI)
#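 Values below derive from 48-hour exposures of cells grown in 96-well plates, with endpoints linearly interpolated between the two concentrations bracketing the appropriate inhibition level. TGI: concentration producing complete growth inhibition.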
# Key:
# Experiment in all cases: NCI anticancer screen, dose series, 48 h
# UACC-257 melanoma = test system: UACC-257 melanoma
# OVCAR-5 ovarian = test system: OVCAR-5 ovarian
# ACHN renal = test system: ACHN renal
# HCC-2998 colon = test system: HCC-2998 colon
# A498 renal = test system: A498 renal
# SK-MEL-5 melanoma = test system: SK-MEL-5 melanoma
# MDA-N = test system: MDA-N
# SK-OV-3 ovarian = test system: SK-OV-3 ovarian
# SF-268 CNS = test system: SF-268 CNS
# NCI-H23 lung = test system: NCI-H23 lung
# LOX IMVI melanoma = test system: LOX IMVI melanoma
# HOP-92 NSCLC = test system: HOP-92 NSCLC
# SK-MEL-2 melanoma = test system: SK-MEL-2 melanoma
# CCRF-CEM leukemia = test system: CCRF-CEM leukemia
# SNB-19 CNS = test system: SNB-19 CNS
# BT-549 breast = test system: BT-549 breast
# HT29 colon = test system: HT29 colon
# NCI/ADR-RES ovarian = test system: NCI/ADR-RES ovarian
# EKVX NSCLC = test system: EKVX NSCLC
# SN12C renal = test system: SN12C renal
# KM12 colon = test system: KM12 colon
# NCI-H226 lung = test system: NCI-H226 lung
# U251 CNS = test system: U251 CNS
# SW-620 colon = test system: SW-620 colon
# OVCAR-4 ovarian = test system: OVCAR-4 ovarian
# SF-295 CNS = test system: SF-295 CNS
# MDA-MB-231 breast = test system: MDA-MB-231 breast
# OVCAR-3 ovarian = test system: OVCAR-3 ovarian
# UO-31 renal = test system: UO-31 renal
# CAKI-1 renal = test system: CAKI-1 renal
# PC-3 prostate = test system: PC-3 prostate
# M14 melanoma = test system: M14 melanoma
# MALME-3M melanoma = test system: MALME-3M melanoma
# A549 NSCLC = test system: A549 NSCLC
# OVCAR-8 ovarian = test system: OVCAR-8 ovarian
# HOP-62 NSCLC = test system: HOP-62 NSCLC
# IGROV1 ovarian = test system: IGROV1 ovarian
# HS 578T breast = test system: HS 578T breast
# UACC-62 melanoma = test system: UACC-62 melanoma
# NCI-H460 lung = test system: NCI-H460 lung
# RXF 393 renal = test system: RXF 393 renal
# MDA-MB-435 = test system: MDA-MB-435
# HCT-116 colon = test system: HCT-116 colon
# SNB-75 CNS = test system: SNB-75 CNS
# MCF7 breast = test system: MCF7 breast
# HL-60(TB) leukemia = test system: HL-60(TB) leukemia
# DU-145 prostate = test system: DU-145 prostate
# 786-0 renal = test system: 786-0 renal
# RPMI-8226 leukemia = test system: RPMI-8226 leukemia
# T-47D breast = test system: T-47D breast
# HCT-15 colon = test system: HCT-15 colon
# NCI-H522 lung = test system: NCI-H522 lung
# SF-539 CNS = test system: SF-539 CNS
# COLO 205 colon = test system: COLO 205 colon
# TK-10 renal = test system: TK-10 renal
compound,measurement,setting,value
CN(CCNC(=O)c1cn(C)c2c1ccc1ccccc12)CCNC(=O)c1cn(C)c2c1ccc1ccccc12,TGI,UACC-257 melanoma,6.62 µM
same,TGI,OVCAR-5 ovarian,3.52 µM
same,TGI,ACHN renal,> 100 µM
same,TGI,HCC-2998 colon,1.49 µM
same,TGI,A498 renal,> 34.5 µM
same,TGI,SK-MEL-5 melanoma,> 100 µM
same,TGI,MDA-N,4.25 µM
same,TGI,SK-OV-3 ovarian,22.3 µM
same,TGI,SF-268 CNS,> 21.3 µM
same,TGI,NCI-H23 lung,> 100 µM
same,TGI,LOX IMVI melanoma,> 100 µM
same,TGI,HOP-92 NSCLC,5.26 µM
same,TGI,SK-MEL-2 melanoma,4.6 µM
same,TGI,CCRF-CEM leukemia,> 100 µM
same,TGI,SNB-19 CNS,> 100 µM
same,TGI,BT-549 breast,6.87 µM
same,TGI,HT29 colon,> 100 µM
same,TGI,NCI/ADR-RES ovarian,> 100 µM
same,TGI,EKVX NSCLC,6.93 µM
same,TGI,SN12C renal,10.6 µM
same,TGI,KM12 colon,2.98 µM
same,TGI,NCI-H226 lung,> 75.1 µM
same,TGI,U251 CNS,4.58 µM
same,TGI,SW-620 colon,> 100 µM
same,TGI,OVCAR-4 ovarian,16.2 µM
same,TGI,SF-295 CNS,> 22.2 µM
same,TGI,MDA-MB-231 breast,3.8 µM
same,TGI,OVCAR-3 ovarian,11.4 µM
same,TGI,UO-31 renal,4.68 µM
same,TGI,CAKI-1 renal,> 100 µM
same,TGI,PC-3 prostate,7.02 µM
same,TGI,M14 melanoma,2.97 µM
same,TGI,MALME-3M melanoma,5.13 µM
same,TGI,A549 NSCLC,11.1 µM
same,TGI,OVCAR-8 ovarian,> 100 µM
same,TGI,HOP-62 NSCLC,5.53 µM
same,TGI,IGROV1 ovarian,4.65 µM
same,TGI,HS 578T breast,3.11 µM
same,TGI,UACC-62 melanoma,12.7 µM
same,TGI,NCI-H460 lung,3.72 µM
CC(C(=O)NCNC(=O)c1ccccc1)C(=O)Nc1ccccc1 (centres undefined),TGI,UACC-257 melanoma,> 100 µM
same,TGI,RXF 393 renal,> 100 µM
same,TGI,OVCAR-5 ovarian,> 100 µM
same,TGI,ACHN renal,> 100 µM
same,TGI,MDA-MB-435,> 100 µM
same,TGI,HCT-116 colon,> 100 µM
same,TGI,SK-MEL-5 melanoma,> 100 µM
same,TGI,SNB-75 CNS,> 100 µM
same,TGI,MDA-N,> 100 µM
same,TGI,MCF7 breast,> 100 µM
same,TGI,SK-OV-3 ovarian,> 100 µM
same,TGI,SF-268 CNS,> 100 µM
same,TGI,NCI-H23 lung,> 100 µM
same,TGI,HOP-92 NSCLC,> 100 µM
same,TGI,SK-MEL-2 melanoma,> 100 µM
same,TGI,CCRF-CEM leukemia,> 100 µM
same,TGI,SNB-19 CNS,> 100 µM
same,TGI,HL-60(TB) leukemia,> 100 µM
same,TGI,BT-549 breast,> 100 µM
same,TGI,DU-145 prostate,> 100 µM
same,TGI,HT29 colon,> 100 µM
same,TGI,786-0 renal,> 100 µM
same,TGI,NCI/ADR-RES ovarian,> 100 µM
same,TGI,EKVX NSCLC,> 100 µM
same,TGI,RPMI-8226 leukemia,> 100 µM
same,TGI,SN12C renal,> 100 µM
same,TGI,KM12 colon,> 100 µM
same,TGI,NCI-H226 lung,> 100 µM
same,TGI,U251 CNS,> 100 µM
same,TGI,SW-620 colon,> 100 µM
same,TGI,SF-295 CNS,> 100 µM
same,TGI,MDA-MB-231 breast,> 100 µM
same,TGI,UO-31 renal,> 100 µM
same,TGI,CAKI-1 renal,> 100 µM
same,TGI,T-47D breast,> 100 µM
same,TGI,HCT-15 colon,> 100 µM
same,TGI,PC-3 prostate,> 100 µM
same,TGI,M14 melanoma,> 100 µM
same,TGI,MALME-3M melanoma,> 100 µM
same,TGI,A549 NSCLC,> 100 µM
same,TGI,OVCAR-8 ovarian,> 100 µM
same,TGI,IGROV1 ovarian,> 100 µM
same,TGI,NCI-H522 lung,> 100 µM
same,TGI,HS 578T breast,> 100 µM
same,TGI,SF-539 CNS,> 100 µM
same,TGI,COLO 205 colon,> 100 µM
same,TGI,UACC-62 melanoma,> 100 µM
same,TGI,TK-10 renal,> 100 µM
same,TGI,NCI-H460 lung,> 100 µM
